Patent US7994140B2, “Classes of compounds that interact with GPCRs” (Alchemia Limited, priority 2002, dated 2011)

Columns and labels:
MC4 = biological target: T1, MC4 (Homo sapiens, UniProt P32245); assay: GPCR radioligand binding (RLB) assay, melanocortin MC4, [125I]NDP-αMSH; conditions: 10 micromolar compound; recombinant human receptor membranes (HEK 293)
T1 construct: purchased Perkin Elmer BioSignal; host or cells: HEK 293
Procedure, shortened: (§1)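 Membranes from HEK 293 cells expressing the recombinant human receptor were equilibrated with [125I]SST-14 (SST5) or [125I]NDP-αMSH (MC4), then compound added for an optimized incubation. Bound ligand separated by filtration on PEI-coated glass fiber and counted by liquid scintillation.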

SST5 = biological target: T2, SST5 (Homo sapiens, UniProt P35346); assay: GPCR radioligand binding (RLB) assay, somatostatin SST5, [125I]SST-14; conditions: 10 micromolar compound; recombinant human receptor membranes (HEK 293)
T2 construct: purchased Perkin Elmer BioSignal; host or cells: HEK 293
T2 sequence (P35346 whole entry): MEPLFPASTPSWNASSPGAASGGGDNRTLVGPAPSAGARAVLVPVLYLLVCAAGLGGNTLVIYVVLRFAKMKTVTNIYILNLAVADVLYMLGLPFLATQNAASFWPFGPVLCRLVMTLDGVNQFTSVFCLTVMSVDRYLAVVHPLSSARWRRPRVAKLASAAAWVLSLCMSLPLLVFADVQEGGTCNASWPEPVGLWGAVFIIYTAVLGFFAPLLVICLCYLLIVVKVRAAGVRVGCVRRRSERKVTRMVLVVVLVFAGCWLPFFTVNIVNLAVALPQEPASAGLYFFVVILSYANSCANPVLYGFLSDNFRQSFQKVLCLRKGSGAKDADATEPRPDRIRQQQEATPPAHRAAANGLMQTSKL
Procedure, shortened: as §1

T1 sequence (P32245 whole entry): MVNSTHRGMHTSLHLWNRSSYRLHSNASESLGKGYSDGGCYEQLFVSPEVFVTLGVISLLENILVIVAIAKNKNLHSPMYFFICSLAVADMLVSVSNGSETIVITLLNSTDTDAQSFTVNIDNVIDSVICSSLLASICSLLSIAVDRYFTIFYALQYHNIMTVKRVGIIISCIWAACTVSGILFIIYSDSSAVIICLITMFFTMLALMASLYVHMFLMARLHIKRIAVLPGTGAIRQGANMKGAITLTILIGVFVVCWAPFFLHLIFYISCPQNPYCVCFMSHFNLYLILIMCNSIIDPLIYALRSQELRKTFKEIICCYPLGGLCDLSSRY

SMILES	MC4 inhibition at 10 micromolar (MC4)	SST5 inhibition at 10 micromolar (SST5)
CSC1OC(COCc2ccc3ccccc3c2)C(O)C(OCc2ccccc2)C1NC(=O)CNC(=N)N (centres unmarked) [Compound 138]	+ (Indicates inhibition greater than . . . 50%)	+ (Indicates inhibition greater than . . . 50%)
CSC1OC(COCc2ccc3ccccc3c2)C(O)C(OCc2ccccc2)C1NC(=O)CCN (centres unmarked) [Compound 139]	+ (Indicates inhibition greater than . . . 50%)	+ (Indicates inhibition greater than . . . 50%)
CSC1OC(COCc2ccc3ccccc3c2)C(O)C(OCc2ccccc2)C1NC(=O)CCNC(=N)N (centres unmarked) [Compound 140]	+ (Indicates inhibition greater than . . . 50%)	+ (Indicates inhibition greater than . . . 50%)
CSC1OC(COCc2ccc3ccccc3c2)C(O)C(OCc2ccccc2)C1NC(=O)CCCN (centres unmarked) [Compound 141]	+ (Indicates inhibition greater than . . . 50%)	+ (Indicates inhibition greater than . . . 50%)
CSC1OC(COCc2ccc3ccccc3c2)C(O)C(OCc2ccccc2)C1NC(=O)CCCNC(=N)N (centres unmarked) [Compound 142]	+ (Indicates inhibition greater than . . . 50%)	+ (Indicates inhibition greater than . . . 50%)
CSC1OC(COCc2ccccc2)C(O)C(OCc2ccc(Cl)cc2)C1NC(=O)CNC(=N)N (centres unmarked) [Compound 144]	+ (Indicates inhibition greater than . . . 50%)	+ (Indicates inhibition greater than . . . 50%)
CSC1OC(COCc2ccccc2)C(O)C(OCc2ccc(Cl)cc2)C1NC(=O)CCN (centres unmarked) [Compound 145]	+ (Indicates inhibition greater than . . . 50%)	+ (Indicates inhibition greater than . . . 50%)
CSC1OC(COCc2ccccc2)C(O)C(OCc2ccc(Cl)cc2)C1NC(=O)CCNC(=N)N (centres unmarked) [Compound 146]	+ (Indicates inhibition greater than . . . 50%)	+ (Indicates inhibition greater than . . . 50%)
CSC1OC(COCc2ccccc2)C(O)C(OCc2ccc(Cl)cc2)C1NC(=O)CCCNC(=N)N (centres unmarked) [Compound 148]	+ (Indicates inhibition greater than . . . 50%)	+ (Indicates inhibition greater than . . . 50%)
CSC1OC(COCc2ccc(Cl)cc2)C(O)C(OCc2ccc(Cl)cc2)C1NC(=O)CNC(=N)N (centres unmarked) [Compound 150]	+ (Indicates inhibition greater than . . . 50%)	+ (Indicates inhibition greater than . . . 50%)
CSC1OC(COCc2ccc(Cl)cc2)C(O)C(OCc2ccc(Cl)cc2)C1NC(=O)CCN (centres unmarked) [Compound 151]	+ (Indicates inhibition greater than . . . 50%)	+ (Indicates inhibition greater than . . . 50%)
CSC1OC(COCc2ccc(Cl)cc2)C(O)C(OCc2ccc(Cl)cc2)C1NC(=O)CCNC(=N)N (centres unmarked) [Compound 152]	+ (Indicates inhibition greater than . . . 50%)	+ (Indicates inhibition greater than . . . 50%)
CSC1OC(COCc2ccc(Cl)cc2)C(O)C(OCc2ccc(Cl)cc2)C1NC(=O)CCCNC(=N)N (centres unmarked) [Compound 154]	+ (Indicates inhibition greater than . . . 50%)	+ (Indicates inhibition greater than . . . 50%)
CSC1OC(COCc2ccc(-c3ccccc3)cc2)C(O)C(OCc2ccc(Cl)cc2)C1NC(=O)CN (centres unmarked) [Compound 155]	+ (Indicates inhibition greater than . . . 50%)	+ (Indicates inhibition greater than . . . 50%)
CSC1OC(COCc2ccc(-c3ccccc3)cc2)C(O)C(OCc2ccc(Cl)cc2)C1NC(=O)CNC(=N)N (centres unmarked) [Compound 156]	+ (Indicates inhibition greater than . . . 50%)	+ (Indicates inhibition greater than . . . 50%)
CSC1OC(COCc2ccc(-c3ccccc3)cc2)C(O)C(OCc2ccc(Cl)cc2)C1NC(=O)CCN (centres unmarked) [Compound 157]	+ (Indicates inhibition greater than . . . 50%)	+ (Indicates inhibition greater than . . . 50%)
CSC1OC(COCc2ccc(-c3ccccc3)cc2)C(O)C(OCc2ccc(Cl)cc2)C1NC(=O)CCNC(=N)N (centres unmarked) [Compound 158]	+ (Indicates inhibition greater than . . . 50%)	+ (Indicates inhibition greater than . . . 50%)
CSC1OC(COCc2ccc(-c3ccccc3)cc2)C(O)C(OCc2ccc(Cl)cc2)C1NC(=O)CCCN (centres unmarked) [Compound 159]	+ (Indicates inhibition greater than . . . 50%)	+ (Indicates inhibition greater than . . . 50%)
CSC1OC(COCc2ccc(-c3ccccc3)cc2)C(O)C(OCc2ccc(Cl)cc2)C1NC(=O)CCCNC(=N)N (centres unmarked) [Compound 160]	+ (Indicates inhibition greater than . . . 50%)	+ (Indicates inhibition greater than . . . 50%)
CSC1OC(COCc2ccc3ccccc3c2)C(O)C(OCc2ccc(Cl)cc2)C1NC(=O)CN (centres unmarked) [Compound 161]	+ (Indicates inhibition greater than . . . 50%)	+ (Indicates inhibition greater than . . . 50%)
CSC1OC(COCc2ccc3ccccc3c2)C(O)C(OCc2ccc(Cl)cc2)C1NC(=O)CNC(=N)N (centres unmarked) [Compound 162]	+ (Indicates inhibition greater than . . . 50%)	+ (Indicates inhibition greater than . . . 50%)
CSC1OC(COCc2ccc3ccccc3c2)C(O)C(OCc2ccc(Cl)cc2)C1NC(=O)CCN (centres unmarked) [Compound 163]	+ (Indicates inhibition greater than . . . 50%)	+ (Indicates inhibition greater than . . . 50%)
CSC1OC(COCc2ccc3ccccc3c2)C(O)C(OCc2ccc(Cl)cc2)C1NC(=O)CCNC(=N)N (centres unmarked) [Compound 164]	+ (Indicates inhibition greater than . . . 50%)	+ (Indicates inhibition greater than . . . 50%)
CSC1OC(COCc2ccc3ccccc3c2)C(O)C(OCc2ccc(Cl)cc2)C1NC(=O)CCCN (centres unmarked) [Compound 165]	+ (Indicates inhibition greater than . . . 50%)	+ (Indicates inhibition greater than . . . 50%)
CSC1OC(COCc2ccc3ccccc3c2)C(O)C(OCc2ccc(Cl)cc2)C1NC(=O)CCCNC(=N)N (centres unmarked) [Compound 166]	+ (Indicates inhibition greater than . . . 50%)	+ (Indicates inhibition greater than . . . 50%)
CSC1OC(COCc2ccccc2)C(O)C(OCc2ccc(-c3ccccc3)cc2)C1NC(=O)CN (centres unmarked) [Compound 167]	+ (Indicates inhibition greater than . . . 50%)	+ (Indicates inhibition greater than . . . 50%)
CSC1OC(COCc2ccccc2)C(O)C(OCc2ccc(-c3ccccc3)cc2)C1NC(=O)CNC(=N)N (centres unmarked) [Compound 168]	+ (Indicates inhibition greater than . . . 50%)	+ (Indicates inhibition greater than . . . 50%)
CSC1OC(COCc2ccccc2)C(O)C(OCc2ccc(-c3ccccc3)cc2)C1NC(=O)CCN (centres unmarked) [Compound 169]	+ (Indicates inhibition greater than . . . 50%)	+ (Indicates inhibition greater than . . . 50%)
